Measured values taken from patent publication US12378224B2 (Dong-A Socio Holdings Co., Ltd., priority 2016, dated 2025).

The compounds below were run against human c-MER catalytic domain (Homo sapiens (Human), UniProt Q12866) (assay: TR-FRET Kinase Activity Biochemical Assay (LanthaScreen)). Conditions: 10 uM ATP, 1 hour, kinase not given.
Summary of the method: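 Recombinant human c-MER catalytic domain phosphorylated fluorescein-labeled poly-GT substrate. The reaction was stopped with 10 mM EDTA, then 2 nM Tb-labeled anti-phosphotyrosine antibody was added for 30 min. Kinase activity was taken from the 495/520 nm TR-FRET emission ratio after 340 nm excitation.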

Sequence of human c-MER catalytic domain (Q12866 587-858): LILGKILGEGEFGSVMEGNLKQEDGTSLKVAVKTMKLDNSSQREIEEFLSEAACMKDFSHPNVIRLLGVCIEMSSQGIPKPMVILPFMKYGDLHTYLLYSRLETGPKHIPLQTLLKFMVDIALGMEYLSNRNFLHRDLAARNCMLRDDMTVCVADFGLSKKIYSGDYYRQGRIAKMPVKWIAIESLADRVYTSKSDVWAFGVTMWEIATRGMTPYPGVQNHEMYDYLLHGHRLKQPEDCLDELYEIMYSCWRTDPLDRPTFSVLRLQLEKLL

IC50 [nM]	SMILES
100 to 1000	CC(=O)n1ccc2cc(C(=O)N3CC[C@@H](NC(=O)c4cc(-c5cnn(C)c5)cnc4N)C3)ccc21 [Example 513, (R)—N-(1-(1-acetyl-1H-indole-5-carbonyl)pyrrolidin-3-yl)-2-amino-5-(1-methyl-1H-pyrazol-4-yl)nicotinamide]
100 to 1000	Cc1n[nH]c(C)c1-c1ccc(C(=O)N2CC[C@@H](NC(=O)c3cc(-c4cnn(C)c4)cnc3N)C2)cc1 [Example 518, (R)-2-amino-N-(1-(4-(3,5-dimethyl-1H-pyrazol-4-yl)benzoyl)pyrrolidin-3-yl)-5-(1-methyl-1H-pyrazol-4-yl)nicotinamide]
100 to 1000	Cc1nn(-c2ccc(N)cc2)c(C)c1-c1ccc(C(=O)N2CC[C@@H](NC(=O)c3cc(-c4cnn(C)c4)cnc3N)C2)cc1 [Example 520, (R)-2-amino-N-(1-(4-(1-(4-aminophenyl)-3,5-dimethyl-1H-pyrazol-4-yl)benzoyl)pyrrolidin-3-yl)-5-(1-methyl-1H-pyrazol-4-yl)nicotinamide]
100 to 1000	Cc1nn(C)c(C(F)(F)F)c1-c1ccc(C(=O)N2CC[C@@H](NC(=O)c3cc(-c4cnn(C)c4)cnc3N)C2)cc1 [Example 521, (R)-2-amino-N-(1-(4-(1,3-dimethyl-5-(trifluoromethyl)-1H-pyrazol-4-yl)benzoyl)pyrrolidin-3-yl)-5-(1-methyl-1H-pyrazol-4-yl)nicotinamide]
10 to 100	COc1ccsc1-c1ccc(C(=O)N2CC[C@@H](NC(=O)c3cc(-c4cnn(C)c4)cnc3N)C2)cc1 [Example 524, (R)-2-amino-N-(1-(4-(3-methoxythiophen-2-yl)benzoyl)pyrrolidin-3-yl)-5-(1-methyl-1H-pyrazol-4-yl)nicotinamide]
10 to 100	CN(C)c1ccc(Oc2ccc(-c3ccc(C(=O)N4CC[C@@H](NC(=O)c5cc(-c6cnn(C)c6)cnc5N)C4)cc3)cc2)cc1 [Example 529, (R)-2-amino-N-(1-(4′-(4-(dimethylamino)phenoxy)-[1,1′-biphenyl]-4-carbonyl)pyrrolidin-3-yl)-5-(1-methyl-1H-pyrazol-4-yl)nicotinamide]
10 to 100	Cn1cc(-c2cnc(N)c(C(=O)N[C@@H]3CCN(C(=O)c4ccc(-c5ccc(Oc6cccc(N)c6)cc5)cc4)C3)c2)cn1 [Example 530, (R)-2-amino-N-(1-(4′-(3-aminophenoxy)-[1,1′-biphenyl]-4-carbonyl)pyrrolidin-3-yl)-5-(1-methyl-1H-pyrazol-4-yl)nicotinamide]
10 to 100	Cn1cc(-c2cnc(N)c(C(=O)N[C@@H]3CCN(C(=O)c4ccc(-c5ccc(OC6CCNCC6)cc5)cc4)C3)c2)cn1 [Example 531, (R)-2-amino-5-(1-methyl-1H-pyrazol-4-yl)-N-(1-(4′-(piperidin-4-yloxy)-[1,1′-biphenyl]-4-carbonyl)pyrrolidin-3-yl)nicotinamide]
100 to 1000	Cn1cc(-c2cnc(N)c(C(=O)N[C@@H]3CCN(C(=O)c4ccc(-c5ccc(OC6CCNC6)cc5)cc4)C3)c2)cn1 (stereo partly drawn) [Example 532, 2-amino-5-(1-methyl-1H-pyrazol-4-yl)-N-((3R)-1-(4′-(pyrrolidin-3-yloxy)-[1,1′-biphenyl]-4-carbonyl)pyrrolidin-3-yl)nicotinamide]
10 to 100	Cn1cc(-c2cnc(N)c(C(=O)N[C@@H]3CCN(C(=O)c4ccc(-c5ccc(Oc6ccc(N)cc6)cc5F)cc4)C3)c2)cn1 [Example 533, (R)-2-amino-N-(1-(4′-(4-aminophenoxy)-2′-fluoro-[1,1′-biphenyl]-4-carbonyl)pyrrolidin-3-yl)-5-(1-methyl-1H-pyrazol-4-yl)nicotinamide]
10 to 100	Cc1ccc(-c2ccc(C(=O)N3CC[C@@H](NC(=O)c4cc(-c5cnn(C)c5)cnc4N)C3)cc2C)s1 [Example 536, (R)-2-amino-5-(1-methyl-1H-pyrazol-4-yl)-N-(1-(3-methyl-4-(5-methylthiophen-2-yl)benzoyl)pyrrolidin-3-yl)nicotinamide]
10 to 100	Cn1cc(-c2cnc(N)c(C(=O)N[C@@H]3CCN(C(=O)c4ccc(-c5ccc(C#N)s5)cc4)C3)c2)cn1 [Example 537, (R)-2-amino-N-(1-(4-(5-cyanothiophen-2-yl)benzoyl)pyrrolidin-3-yl)-5-(1-methyl-1H-pyrazol-4-yl)nicotinamide]
100 to 1000	Cc1noc(C)c1-c1ccc(C(=O)N2CC[C@@H](NC(=O)c3cc(-c4cnn(C)c4)cnc3N)C2)cc1 [Example 539, (R)-2-amino-N-(1-(4-(3,5-dimethylisoxazol-4-yl)benzoyl)pyrrolidin-3-yl)-5-(1-methyl-1H-pyrazol-4-yl)nicotinamide]
10 to 100	Cn1cc(-c2cnc(N)c(C(=O)N[C@@H]3CCN(C(=O)c4ccc(-c5ccc(O[C@H]6CCNC6)cc5)cc4)C3)c2)cn1 [Example 541, 2-amino-5-(1-methyl-1H-pyrazol-4-yl)-N—((R)-1-(4′-(((S)-pyrrolidin-3-yl)oxy)-[1,1′-biphenyl]-4-carbonyl)pyrrolidin-3-yl)nicotinamide]
100 to 1000	CC(O)c1ccc(-c2ccc(C(=O)N3CC[C@@H](NC(=O)c4cc(-c5cnn(C)c5)cnc4N)C3)cc2)s1 (stereo partly drawn) [Example 542, 2-amino-N-((3R)-1-(4-(5-(1-hydroxyethyl)thiophen-2-yl)benzoyl)pyrrolidin-3-yl)-5-(1-methyl-1H-pyrazol-4-yl)nicotinamide]
100 to 1000	CN1CCC(NCc2ccc(-c3ccc(C(=O)N4CC[C@@H](NC(=O)c5cc(-c6cnn(C)c6)cnc5N)C4)cc3)cc2)CC1 [Example 549, (R)-2-amino-5-(1-methyl-1H-pyrazol-4-yl)-N-(1-(4′-(((1-methylpiperidin-4-yl)amino)methyl)-[1,1′-biphenyl]-4-carbonyl)pyrrolidin-3-yl)nicotinamide]
10 to 100	CN(C)CCCOc1ccc(-c2ccc(C(=O)N3CC[C@@H](NC(=O)c4cc(-c5cnn(C)c5)cnc4N)C3)cc2)cc1 [Example 551, (R)-2-amino-N-(1-(4′-(3-(dimethylamino)propoxy)-[1,1′-biphenyl]-4-carbonyl)pyrrolidin-3-yl)-5-(1-methyl-1H-pyrazol-4-yl)nicotinamide]
100 to 1000	COc1ccc(-c2cnc(N)c(C(=O)N[C@@H]3CCN(C(=O)c4ccc(-c5ccccc5)cc4)C3)c2)cc1 [Example 555, (R)—N-(1-([1,1′-biphenyl]-4-carbonyl)pyrrolidin-3-yl)-2-amino-5-(4-methoxyphenyl)nicotinamide]
10 to 100	Nc1ncc(-c2ccc(N3CCOCC3)cc2)cc1C(=O)N[C@@H]1CCN(C(=O)c2ccc(-c3ccccc3)cc2)C1 [Example 557, (R)—N-(1-([1,1′-biphenyl]-4-carbonyl)pyrrolidin-3-yl)-2-amino-5-(4-morpholinophenyl)nicotinamide]
10 to 100	CC(C)(C)OC(=O)N1CCC(n2cc(-c3cnc(N)c(C(=O)N[C@@H]4CCN(C(=O)c5ccc(-c6ccccc6)cc5)C4)c3)cn2)CC1 [Example 561, tert-butyl (R)-4-(4-(5-((1-([1,1′-biphenyl]-4-carbonyl)pyrrolidin-3-yl)carbamoyl)-6-aminopyridin-3-yl)-1H-pyrazol-1-yl)piperidine-1-carboxylate]
10 to 100	Nc1ncc(-c2ccc(CN3CCOCC3)cc2)cc1C(=O)N[C@@H]1CCN(C(=O)c2ccc(-c3ccccc3)cc2)C1 [Example 569, (R)—N-(1-([1,1′-biphenyl]-4-carbonyl)pyrrolidin-3-yl)-2-amino-5-(4-(morpholinomethyl)phenyl)nicotinamide]
10 to 100	Nc1ncc(-c2ccc(N3CCOCC3)cc2)cc1C(=O)N[C@@H]1CCN(C(=O)c2ccc(-c3ccccc3Cl)cc2)C1 [Example 571, (R)-2-amino-N-(1-(2′-chloro-[1,1′-biphenyl]-4-carbonyl)pyrrolidin-3-yl)-5-(4-morpholinophenyl)nicotinamide]
10 to 100	Nc1ncccc1C(=O)N[C@@H]1CCN(C(=O)c2ccc(-c3ccc(F)cc3Cl)cc2)C1 [Example 579, (R)-2-amino-N-(1-(2′-chloro-4′-fluoro-[1,1′-biphenyl]-4-carbonyl)pyrrolidin-3-yl)nicotinamide]
10 to 100	Nc1ncc(-c2ccc(C(=O)NCCCN3CCCC3=O)cc2)cc1C(=O)N[C@@H]1CCN(C(=O)c2ccc(-c3ccccc3Cl)cc2)C1 [Example 595, (R)-2-amino-N-(1-(2′-chloro-[1,1′-biphenyl]-4-carbonyl)pyrrolidin-3-yl)-5-(4-((3-(2-oxopyrrolidin-1-yl)propyl)carbamoyl)phenyl)nicotinamide]
10 to 100	Cc1ccc(-c2ccc(C(=O)N3CC[C@@H](Nc4n[nH]c5ncc(-c6cnn(C)c6)cc45)C3)cc2)s1 [Example 615, (R)-(3-((5-(1-methyl-1H-pyrazol-4-yl)-1H-pyrazolo[3,4-b]pyridin-3-yl)amino)pyrrolidin-1-yl)(4-(5-methylthiophen-2-yl)phenyl)methanone]
100 to 1000	Cn1cc(-c2cnc3[nH]nc(N[C@@H]4CCN(C(=O)c5ccc(-c6ccccc6)cc5)C4)c3c2)cn1 [Example 616, (R)-[1,1′-biphenyl]-4-yl(3-((5-(1-methyl-1H-pyrazol-4-yl)-1H-pyrazolo[3,4-b]pyridin-3-yl)amino)pyrrolidin-1-yl)methanone]

SMILES	IC50 [nM]
CC(=O)n1ccc2c(C(=O)N3CC[C@@H](NC(=O)c4cc(-c5cnn(C)c5)cnc4N)C3)cccc21 [Example 514, (R)—N-(1-(1-acetyl-1H-indole-4-carbonyl)pyrrolidin-3-yl)-2-amino-5-(1-methyl-1H-pyrazol-4-yl)nicotinamide]	> 1000
Cn1cc(-c2cnc(N)c(C(=O)N[C@@H]3CCN(C(=O)c4cn(-c5ccccc5)nc4C(F)(F)F)C3)c2)cn1 [Example 516, (R)-2-amino-5-(1-methyl-1H-pyrazol-4-yl)-N-(1-(1-phenyl-3-(trifluoromethyl)-1H-pyrazole-4-carbonyl)pyrrolidin-3-yl)nicotinamide]	> 1000
CC(C)(c1ccc(-c2cnc(N)c(C(=O)N[C@@H]3CCN(C(=O)c4ccc(-c5ccccc5)cc4)C3)c2)cc1)N1CCNCC1 [Example 564, (R)—N-(1-([1,1′-biphenyl]-4-carbonyl)pyrrolidin-3-yl)-2-amino-5-(4-(2-(piperazin-1-yl)propan-2-yl)phenyl)nicotinamide]	< 10
